“Also recorded” adds a separate entry of the source.
Key:
K562 cells = test: K562 viability and cell proliferation (relative cell number count), incl. FDX1 KO cells; assay type: cell-based, human; details: FDX1-null cell line versus non-targeting control sgRNA
Description: Despite its use in clinical trials on a limited number of malignancies, the elesclomol mechanism of action remains unclear. We therefore undertook a genetic approach to identify its direct target and to define cellular pathways that modulate the sensitivity of cancer cells to elesclomol-induced toxicity. […] We measured the relative abundance of each sgRNA in the compound-treated K562 cells at the beginning and end of the culture period. For each gene, we calculated its score as the mean log2 fold-change in abundance of all sgRNAs targeting the gene. […]
Viability and cell proliferation assays—Relative cell number count protocol—The viability of K562 cells was conducted by seeding cells at 250,000 cells/mL in 6-well plates of RPMI. […] Viable cell numbers were counted using countess (Invitrogen) every 2-3 days and cells were reseeded at 250,000 cells/mL in 6-well plates of RPMI to continue growth.
The viability of FDX1 KO K562 cells and AAVS1 KO and WT controls was examined by plating 100,000 cells/mL in 6-well cells in RPMI media (without glucose containing dialyzed serum) with either 10 mM glucose or 10 mM galactose. Viable cell numbers were counted every day using countess (Invitrogen).

MCF7 and HEK293 cells = test: Cell viability with glucose or galactose as the carbon source; assay type: cell-based, human; details: 10 mM glucose or 10 mM galactose
Description: Cells were treated with increasing concentrations of elesclomol in the presence of either Glucose or Galactose as the carbon source (FIG. 40A). The presence of Galactose will induce a mitochondrial dependent metabolism (FIGS. 40B-40C, Gohil et al., Nature Biotechnology 28, 249-255 (2010)).
The sensitivity of cells to different chemical isoforms of elesclomol was also assessed. […] Removing even one substantially impairs the ability of the molecule to induce toxicity (FIG. 41B).
Cell culture methods—147D, Lo19S T47D, K562 and 293T-HS cells were cultured in RPMI-1640 medium supplemented with 10% fetal bovine serum; HEK293, HEK293T and MCF-7 cells were cultured in Dulbecco's modified Eagle's medium supplemented with 10% fetal bovine serum. For the glucose, galactose experiments media lacking glucose was supplemented with dialyzed serum and either 10 mM Glucose or 10 mM galactose.
Cell viability—where indicated relative cell number following different drug treatment was conducted by plating cells at 1000 cells/well in 384 well plates. Indicated concentrations of compounds were added 24 hour after plating at least in triplicate for each condition. Viability was measured 72 hours after drug addition using cell titer-glo (Promega) according to manufactures protocol. […]

FDX1 = biological target: T1, FDX1 (Homo sapiens, UniProt P10109); test: NMR titration of elesclomol against [U-15N]-FDX1 (2D 1H,15N TROSY-HSQC); assay type: binding
T1 construct: made in house
T1 sequence (P10109 62-184): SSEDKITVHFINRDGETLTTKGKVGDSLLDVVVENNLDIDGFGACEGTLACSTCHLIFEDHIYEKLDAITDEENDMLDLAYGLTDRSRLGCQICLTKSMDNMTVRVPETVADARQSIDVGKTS
Description: Most of these residues map to the α2, α3 helices and the β5 strand within the FDX1 structure (FIG. 53E).
NMR Spectroscopy—NMR spectra were collected at the National Magnetic Resonance Facility at Madison on a 750 MHz (^1H) Balker with a z-gradient cryogenic probe. The buffer used for NMR samples (HNT buffer) contained 20 mM HEPES at pH 7.6, 150 mM NaCl, and 2 mM TCEP. All sample temperatures were regulated at 25° C. NMRPipe software (Delaglio et al., 1995) was used to process the raw NMR data and NMRFAM-SPARKY (Lee et al., 2015) software was utilized to visualize and analyze the processed NMR data.
To study the interactions of FDX1 with elesclomol, 0.2 mM [U-^15N]-FDX1 in HNT buffer were placed in 5 mm Shigemi NMR tubes, and 2D ^1H,^15N TROSY-HSQC spectra were collected before and after titration of 5 equivalent molar ratio of elesclomol dissolved in HNT buffer.
Chemical shift perturbations (ΔδHN absolute value ppm) were calculated by
where Δ67 H and ΔδN are the chemical shift changes in the ^1H and ^15N dimensions, respectively.

IMR32 and Kelly cells = test: Viability of IMR32 vs Kelly neuroblastoma cells; assay type: cell-based, human
Description: FIGS. 24A-24C: (FIG. 24A) Plot showing the effect of various concentrations of ABT-263 on IMR32 and Kelly cells. (FIG. 24B) Plot showing effect of various concentrations of disulfiram on IMR32 and Kelly cells. (FIG. 24C) Plot showing effect of various concentrations of elesclomol on IMR32 and Kelly cells. Fold viability refers to the number of viable cells of the indicated type after culture in the presence of the indicated test compound for 72 hours divided by the number of viable cells of that type after culture in the absence of the test compound.
FIG. 28: The relative viability was examined in IMR32 cells and Kelly cells after addition of indicated concentrations of the different BCL2 family inhibitors. ABT-263 (BCL2, BCLXL, MCL1) (upper left panel), ABT-199 (BCL2) (upper right panel), WEHI-539 (BCLXL) (lower left panel), A-1210477 (MCL1) (lower right panel). The relative effect on cell growth was analyzed 72 hours after addition of drugs.

cancer cell lines (GDSC) = test: Genomics of Drug Sensitivity in Cancer (GDSC) data analysis, IC50 of bortezomib and MG132 vs 19S expression / sigma score; assay type: cell-based, human; details: GDSC database
Description: In some aspects, whether a cancer cell is considered resistant or sensitive to a particular agent may be determined by comparing the IC50 of the agent for the cancer cell with the IC50 of the agent as measured for each cell line in a panel of diverse cancer cell lines. Cancer cells for which the agent has an IC50 in the 10th percentile of IC50 values determined for the agent on a diverse panel of cancer cell lines may be considered sensitive, while cancer cells for which the agent has an IC50 in the 90th percentile of IC50 values determined for the agent on a diverse panel of cancer cell lines may be considered resistant to the agent.
We asked if this might correlate with changes in 19S subunit expression. We analyzed the Genomics of Drug Sensitivity in Cancer (GDSC) database, a public resource of transcriptional data and drug responsiveness collected from a spectrum of human cancer cell lines with diverse tissue origins and diverse oncogenic lesions (Garnett et al., 2012). […]
Further details of methods used in GDSC dataset analysis: Gene expression and drug sensitivity data was downloaded from the World Wide Web at subdomain cancerrxgene.org. […] For each proteasomal subunit gene, a-score was calculated for each cell line. […] P-values were calculated by t-test, comparing the logEC50s between the 3 sigma and not 3 sigma.

[1] = biological target: β5-subunit of the proteasome (Homo sapiens, UniProt P28074); details: cited from earlier work

Row | SMILES | effect of loss of FDX1 protein on sensitivity (K562 cells) | sensitivity of cells in galactose (mitochondrial metabolism, Hi-OXPHOS) versus glucose (glycolytic) (MCF7 and HEK293 cells) | binding to FDX1 by NMR (FDX1; 0.2 mM [U-15N]-FDX1, 5 equivalent molar ratio of elesclomol) | chemical shift perturbation (Δδ) of the most affected FDX residues (FDX1; I58-F59, D61, K66, D68, A69, D72-D76, L84, T104-R106) | resistance of IMR32 cells compared to Kelly cells (IMR32 and Kelly cells) | average IC50 value in 3-Sigma cell lines vs all other lines (cancer cell lines (GDSC)) | potency of inhibition of the β5-subunit [1]
1 | CN(NC(=O)CC(=O)NN(C)C(=S)c1ccccc1)C(=S)c1ccccc1 [elesclomol] | confers relative resistance | much more sensitive; also recorded: toxicity is enhanced | directly binds FDX1 | > 0.01 ppm | – | – | –
2 | CC(C)C[C@H](NC(=O)[C@H](Cc1ccccc1)NC(=O)c1cnccn1)B(O)O [bortezomib] | – | – | – | – | increased resistance | considerably higher | low nanomolar potency

From patent publication US20180353445A1, “METHODS AND COMPOSITIONS RELATING TO PROTEASOME INHIBITOR RESISTANCE” (Whitehead Institute for Biomedical Research, priority 2017, published 2018)
